Peptide text beside a SMILES is read from it. * marks the point of attachment. NOTA = O=C(O)CN1CCN(CC(=O)O)CCN(CC(=O)*)CC1; AEEEA = NCCOCCOCCOCC(=O)O
Tests used:
[1] = Partition coefficient (log P), 1-octanol/PBS; assay type: physicochemical; conditions: shake-flask 3 mL 1-octanol / 3 mL PBS pH 7.4, vortex 10 min, centrifugation 10,000 rpm 10 min, γ-counter, mean ± SD, n = 5
Procedure: The partition coefficients were assessed using the method described previously. [^68Ga]Ga-HN11-1 and [^68Ga]Ga-HN11-2 was respectively introduced into a mixture comprising 3 mL of 1-octanol and 3 mL of phosphate-buffered saline (PBS) with a pH of 7.4. Following vortexing for 10 minutes and subsequent centrifugation at 10,000 rpm for 10 minutes, samples were taken from both layers and counted using a γ-counter. The log P was determined using the formula: log P = log([M]oct/[M]aq). All measurements were conducted using 5 independent samples and are presented as mean ± standard deviation (SD).

[2] = In vitro stability in serum (radio-HPLC); assay type: in vitro ADME; conditions: room temperature, over 4 h (0.5, 1, 2, 4 h), 3.74 MBq, read-out: in vitro stability in serum (radiochemical purity)
Procedure: The in vitro stability of [^68Ga]Ga-HN11-1 and [^68Ga]Ga-HN11-2 (3.74 MBq) in saline and serum was tested by radio-HPLC analysis of its radiochemical purity after incubation at room temperature for 0.5 , 1 , 2 and 4 h.

[3] = test system: A549-PD-L2 tumor xenograft models; test: Dynamic micro-PET imaging in A549-PD-L2 xenografts; assay type: in vivo, BALB/C nude mice; conditions: n = 3
Procedure: (§1) Micro-PET imaging was conducted using an Inveon PET scanner (Siemens, Germany). Dynamic PET examine were acquired over the first 60 min following the simultaneous injection of 7.4 to 9.25 MBq (200 to 250 μCi) of [^68Ga]Ga-HN11-1 and [^68Ga]Ga-HN11-2. After reconstructing the images and delineating the regions of interest (ROIs), time-radioactivity curves were plotted to obtain the Tumor/Muscle (T/M) ratios. %ID/g represents the percentage of the injected dose of the radiotracer that accumulates in a specific tissue per gram of tissue weight. For the biodistribution study, the xenograft models received an intravenous injection of 3.7 to 5.5 MBq (100 to 150 μCi) of [^68Ga]Ga-HN11-1. After the designated period (10, 30, 60, and 90 min), the mice were euthanized, and important tissues and organs were dissected and collected. The samples were counted using the γ-counter for determining the %ID/g, presented as mean ± standard deviation (SD).
(§2) A549 cell lines were provided by the China Center for Type Culture Collection (CCTCC) and cultured in RPMI-1640 medium supplemented with 10 % fetal bovine serum and 100 U/mL penicillin-streptomycin. The lentivirus system was implemented to introduce PD-L2 (PDCD1LG2) over-expressed cDNA into the A549 cells. The viral vectors were produced in 293T cells and co-transfected with the psAX2, pMD2G and PD-L2 plasmids. A549 cells transduced with the vectors were selectively grown in 1.6 μg/mL puromycin. Transfection efficiency was identified by WB and real-time quantitative PCR. All the cells were cultured in an incubator at 37° C with 5 % CO2 atmosphere. A549 and A549-PD-L2 cells (5 × 10^6, 200 μL)were subcutaneously implanted into the right shoulder of BALB/C nude mice (male, 4-6 weeks), respectively. When the tumors reached to 5 - 8 mm in diameter, the mice were subjected to in vivo and ex vivo studies. All the mice were purchased from the Laboratory Animal Center of Central South University.

[4] = test system: A549-PD-L2 xenograft models; test: Static PET/CT imaging with blocking; assay type: in vivo, BALB/C nude mice; conditions: 60 min, pretreatment i.v. with excess HN11-1 / HN11-2 (10 mg/kg), n = 3
Procedure: (§3) The static PET/CT imaging in A549 and A549-PD-L2 xenograft models after injection of 5.55 to 7.4 MBq (150 to 200 μCi) of [^68Ga]Ga-HN11-1 or [^68Ga]Ga-HN11-2 were acquired at 60 min. In the [^68Ga]Ga-HN11-1 + block or [^68Ga]Ga-HN11-2 + block groups, the xenograft models underwent pretreatment via intravenous injection of HN11-1 or HN-2 (10 mg/kg) before PET/CT imaging. Then, ROIs were delineated for each group. After imaging, tumor tissues from both the A549 and A459-PD-L2 xenograft tumors were extracted, and the PD-L2 expression was tested by IHC. For the pharmacokinetics study, healthy BALB/C mouse received an intravenous injection of 5.55 MBq (150 μCi) of [^68Ga]Ga-HN11-1 and [^68Ga]Ga-HN11-2. Measure the activity of blood samples (%ID/g, mean ± SD) at the corresponding time points, and the time-activity curve was plotted. Subsequently, pharmacokinetic parameters were tested using the noncompartmental model in Phoenix WinNonlin 8.1 software (Certara, USA).

[5] = Pharmacokinetics in blood; assay type: in vivo; conditions: healthy BALB/C mouse, i.v. 5.55 MBq, noncompartmental model, Phoenix WinNonlin 8.1
Procedure: as §3

[6] = test system: A549-PD-L2 xenograft tumor models; test: Biodistribution (γ-counter); assay type: in vivo, BALB/C nude mice; conditions: mean ± SD, n = 3
Procedure: as §1, §2

CC[C@H](C)[C@H](NC(=O)[C@H](CCCNC(=N)N)NC(=O)CNC(=O)[C@H](CCC(=O)O)NC(=O)[C@H](CC(N)=O)NC(=O)[C@H](Cc1ccc(O)cc1)NC(=O)[C@H](CCCNC(=N)N)NC(=O)[C@H](Cc1ccc(O)cc1)NC(=O)[C@H](Cc1c[nH]cn1)NC(=O)COCCOCCOCCNC(=O)CN1CCN(CC(=O)O)CCN(CC(=O)O)CC1)C(=O)N[C@@H](CCCNC(=N)N)C(=O)N[C@@H](CC(N)=O)C(=O)O [[^68Ga]Ga-HN11-1, metal not drawn] ({NOTA-AEEEA}-HYRYNEGRIRN-OH)
logD [1]: -0.3 ± 0.0017
remaining at 4 h [2]: > 95%
tumor uptake ([3]; 10 min after injection): 2.61 ± 0.16 %ID/g
tumor uptake ([3]; 20 min after injection): 2.97 ± 0.18 %ID/g
tumor uptake ([3]; 30 min after injection): 3.36 ± 0.29 %ID/g
tumor uptake ([3]; 40 min after injection): 3.22 ± 0.23 %ID/g
tumor uptake ([3]; 50 min after injection): 3.06 ± 0.36 %ID/g
tumor uptake ([3]; 60 min after injection): 2.76 ± 0.42 %ID/g
tumor uptake after blocking [4]: 0.74 ± 0.03 %ID/g
half-life in blood [5]: 13.37 min
Blood uptake ([6]; 10 min p.i.): 2.83 ± 0.21 %ID/g
Heart uptake ([6]; 10 min p.i.): 1.41 ± 0.10 %ID/g
Liver uptake ([6]; 10 min p.i.): 2.90 ± 0.47 %ID/g
Lung uptake ([6]; 10 min p.i.): 1.56 ± 0.06 %ID/g
Spleen uptake ([6]; 10 min p.i.): 1.91 ± 0.14 %ID/g
Stomach uptake ([6]; 10 min p.i.): 1.27 ± 0.14 %ID/g
Blood uptake ([6]; 30 min p.i.): 1.34 ± 0.16 %ID/g
Heart uptake ([6]; 30 min p.i.): 0.85 ± 0.10 %ID/g
Kidney uptake ([6]; 30 min p.i.): 66.15 ± 0.73 %ID/g
Liver uptake ([6]; 30 min p.i.): 1.44 ± 0.31 %ID/g
Lung uptake ([6]; 30 min p.i.): 0.96 ± 0.09 %ID/g
Spleen uptake ([6]; 30 min p.i.): 0.86 ± 0.16 %ID/g
Stomach uptake ([6]; 30 min p.i.): 0.48 ± 0.04 %ID/g
Blood uptake ([6]; 60 min HN11-1 Block): 0.33 ± 0.02 %ID/g
Heart uptake ([6]; 60 min HN11-1 Block): 0.18 ± 0.02 %ID/g
Kidney uptake ([6]; 60 min HN11-1 Block): 76.77 ± 7.10 %ID/g
Liver uptake ([6]; 60 min HN11-1 Block): 1.20 ± 0.32 %ID/g
Lung uptake ([6]; 60 min HN11-1 Block): 0.92 ± 0.04 %ID/g
Spleen uptake ([6]; 60 min HN11-1 Block): 0.96 ± 0.17 %ID/g
Stomach uptake ([6]; 60 min HN11-1 Block): 0.26 ± 0.05 %ID/g
Blood uptake ([6]; 60 min p.i.): 0.34 ± 0.01 %ID/g
Heart uptake ([6]; 60 min p.i.): 0.18 ± 0.02 %ID/g
Kidney uptake ([6]; 60 min p.i.): 74.56 ± 3.78 %ID/g
Liver uptake ([6]; 60 min p.i.): 0.91 ± 0.14 %ID/g
Lung uptake ([6]; 60 min p.i.): 0.74 ± 0.04 %ID/g
Spleen uptake ([6]; 60 min p.i.): 0.51 ± 0.17 %ID/g
Stomach uptake ([6]; 60 min p.i.): 0.19 ± 0.03 %ID/g
Blood uptake ([6]; 90 min p.i.): 0.16 ± 0.03 %ID/g
Heart uptake ([6]; 90 min p.i.): 0.13 ± 0.01 %ID/g
Kidney uptake ([6]; 90 min p.i.): 87.01 ± 3.40 %ID/g
Liver uptake ([6]; 90 min p.i.): 0.28 ± 0.17 %ID/g
Lung uptake ([6]; 90 min p.i.): 0.40 ± 0.11 %ID/g
Spleen uptake ([6]; 90 min p.i.): 0.21 ± 0.04 %ID/g
Stomach uptake ([6]; 90 min p.i.): 0.20 ± 0.02 %ID/g

From article PMC11528066, “Noninvasive Monitoring of Programmed Death-Ligand 2 Expression with Positron Emission Tomography using ^68Ga-labeled Peptide Antagonist in Preclinical and Exploratory Human Studies” (Research, 2024)
